Source: ChEMBL document CHEMBL4651402, “Screening of ~5500 FDA-approved drugs and clinical candidates for anti-SARS-CoV-2 activity” (2021)
Numbered stars: 1 amine (or outer) side, 2 acyl side, 3 side chain; on linkers, the order of the positions; unused ones are H or OH. Bridge positions count the residues as written; N and C are the ends. Square brackets hold non-standard residues; d marks the D form. Peptide text beside a SMILES is read from it. I, II: the chains in the order shown. Actinocin(1to9) = Cc1c2oc3c(C)ccc(C(=O)[*:2])c3nc-2c(C(=O)[*:1])c(N)c1=O; NMeV = CN[C@H](C(=O)O)C(C)C; Sar = CNCC(=O)O

Tested on: SARS-CoV-2
Assay: microbe, parasite or virus in culture
Conditions: Severe acute respiratory syndrome coronavirus 2, Vero C1008, 48 h

## COc1ccc(CCC(C)NCC(O)c2ccc(O)c([S+](C)[O-])c2)cc1 (centres undefined) [SULFINALOL]
  IC50: > 20 µM
read-out: pIC50 (converted)
  IC50: > 20 µM

## CN(C)CCn1nnnc1SCC1=C(C(=O)O)N2C(=O)[C@@H](NC(=O)Cc3csc(N)n3)[C@H]2SC1 [CEFOTIAM]
  IC50: > 20 µM
read-out: pIC50 (converted)
  IC50: > 20 µM

## COc1cc(-c2ccc(/N=N/c3ccc4c(S(=O)(=O)O)cc(S(=O)(=O)O)c(N)c4c3O)c(OC)c2)ccc1/N=N/c1ccc2c(S(=O)(=O)O)cc(S(=O)(=O)O)c(N)c2c1O [CHICAGO SKY BLUE]
  IC50: > 20 µM
read-out: pIC50 (converted)
  IC50: > 20 µM

## Cc1cc2c(cc1S(N)(=O)=O)S(=O)(=O)CCC2
  IC50: > 20 µM
read-out: pIC50 (converted)
  IC50: > 20 µM

## CC[C@H]1OC(=O)C[C@@H](O)[C@H](C)[C@@H](O[C@@H]2O[C@H](C)[C@@H](O[C@H]3C[C@@](C)(O)[C@@H](O)[C@H](C)O3)[C@H](N(C)C)[C@H]2O)[C@@H](CC=O)C[C@@H](C)C(=O)/C=C\C(C)=C/[C@@H]1CO[C@@H]1O[C@H](C)[C@@H](O)[C@@H](OC)[C@H]1OC
  IC50: > 20 µM
read-out: pIC50 (converted)
  IC50: > 20 µM

## Cc1cc(NS(=O)(=O)c2ccc(N)cc2)no1 [SULFAMETHOXAZOLE]
  IC50: > 20 µM
read-out: pIC50 (converted)
  IC50: > 20 µM

## CNC[C@H](O)c1cccc(O)c1 [PHENYLEPHRINE]
  IC50: > 20 µM
read-out: pIC50 (converted)
  IC50: > 20 µM

## CO[C@@H]1[C@@H](O[C@@H]2O[C@H](C)[C@@H](O[C@H]3C[C@@](C)(O)[C@@H](OC(=O)CC(C)C)[C@H](C)O3)[C@H](N(C)C)[C@H]2O)[C@@H](CC=O)C[C@@H](C)[C@@H](O)/C=C/C=C/C[C@@H](C)OC(=O)C[C@H]1OC(C)=O [JOSAMYCIN]
  IC50: > 20 µM
read-out: pIC50 (converted)
  IC50: > 20 µM

## O=C1CC[C@@]2(O)[C@H]3Cc4ccc(O)c5c4[C@@]2(CCN3CC2CC2)[C@H]1O5 [NALTREXONE]
  IC50: > 20 µM
read-out: pIC50 (converted)
  IC50: > 20 µM

## O=c1cccc2n1CC1CC2CN2CCCCC12 (centres undefined)
  IC50: > 20 µM
read-out: pIC50 (converted)
  IC50: > 20 µM

## COc1cnc(NS(=O)(=O)c2ccc(N)cc2)nc1
  IC50: > 20 µM
read-out: pIC50 (converted)
  IC50: > 20 µM

## CCOC(=O)C(CCN1CCOCC1)(c1ccccc1)c1ccccc1 [DIOXAPHETYL BUTYRATE]
  IC50: > 20 µM
read-out: pIC50 (converted)
  IC50: > 20 µM

## CCCC1(CCC)CCC2(CCN(CCCN(CC)CC)C2)CC1 [ATIPRIMOD]
  IC50: > 20 µM
read-out: pIC50 (converted)
  IC50: > 20 µM

## CCCCCOC(=O)Nc1nc(=O)n([C@@H]2O[C@H](C)[C@@H](O)[C@H]2O)cc1F [CAPECITABINE]
  IC50: > 20 µM
read-out: pIC50 (converted)
  IC50: > 20 µM

## COc1cc2c(cc1OC)[C@@H]1C(=O)c3ccc4c(c3O[C@@H]1CO2)C=CC(C)(C)O4 [DEGUELIN]
  IC50: > 20 µM
read-out: pIC50 (converted)
  IC50: > 20 µM

## CCOC(=O)[C@H](CCc1ccccc1)N[C@@H](C)C(=O)N1Cc2ccccc2C[C@H]1C(=O)O
  IC50: > 20 µM
read-out: pIC50 (converted)
  IC50: > 20 µM

## CN1CCC23CCCCC2C1Cc1ccc(O)cc13 (stereo not drawn) [RACEMORPHAN]
  IC50: > 20 µM
read-out: pIC50 (converted)
  IC50: > 20 µM

## CCOC(=O)O[C@]1(C(=O)COC(=O)CC)CC[C@H]2[C@@H]3CCC4=CC(=O)C=C[C@]4(C)[C@H]3[C@@H](O)C[C@@]21C [PREDNICARBATE]
  IC50: > 20 µM
read-out: pIC50 (converted)
  IC50: > 20 µM

## CC(C)Oc1ccc(-c2nc(-c3cccc4c3CC[C@@H]4NCCO)no2)cc1C#N [OZANIMOD]
  IC50: > 20 µM
read-out: pIC50 (converted)
  IC50: > 20 µM

## Cc1oc(=O)oc1CN1CCN(c2cc3c(cc2F)c(=O)c(C(=O)O)c2n3C(C)S2)CC1 (centres undefined) [PRULIFLOXACIN]
  IC50: > 20 µM
read-out: pIC50 (converted)
  IC50: > 20 µM

## Cc1cccc(/C=N/Nc2cc(N3CCOCC3)nc(OCCc3ccccn3)n2)c1 [APILIMOD]
  IC50: > 20 µM
read-out: pIC50 (converted)
  IC50: > 20 µM

## NC1(C(=O)O)CC1 [1-Aminocyclopropane carboxylic acid]
  IC50: > 20 µM
read-out: pIC50 (converted)
  IC50: > 20 µM

## CCCN1CCCC2Cc3nc(N)ncc3CC21 (centres undefined)
  IC50: > 20 µM
read-out: pIC50 (converted)
  IC50: > 20 µM

## CNc1ncnc2c1ncn2[C@@H]1O[C@H](CO)[C@@H](O)[C@H]1O
  IC50: > 20 µM
read-out: pIC50 (converted)
  IC50: > 20 µM

## CC(=O)NCCCCCCNC(C)=O [HEXAMETHYLENEBISACETAMIDE]
  IC50: > 20 µM
read-out: pIC50 (converted)
  IC50: > 20 µM

## COC(=O)C(O)c1ccccc1 (centres undefined) [MANDELIC ACID, METHYL ESTER]
  IC50: > 20 µM
read-out: pIC50 (converted)
  IC50: > 20 µM

## CCC[N+]12C3C[C@@H]([C@H](CC)[C@H]1O)[C@H]1[C@H](O)[C@]4(C[C@@H]12)c1ccccc1N(C)[C@@H]34
  IC50: > 20 µM
read-out: pIC50 (converted)
  IC50: > 20 µM

## CCC(CCC(C)C1CCC2C3CC[C@H]4CC(O)CCC4(C)C3CCC12C)C(C)C (some centres undefined)
  IC50: > 20 µM
read-out: pIC50 (converted)
  IC50: > 20 µM

## C=CCN1CCc2nc(N)sc2CC1 [TALIPEXOLE]
  IC50: > 20 µM
read-out: pIC50 (converted)
  IC50: > 20 µM

## Oc1c(I)cc(Cl)c2cccnc12 [CLIOQUINOL]
  IC50: > 20 µM
read-out: pIC50 (converted)
  IC50: > 20 µM

## N/N=c1\[nH][nH]/c(=N\N)c2ccccc12 [DIHYDRALAZINE]
  IC50: > 20 µM
read-out: pIC50 (converted)
  IC50: > 20 µM

## CO[C@H]1C[C@@H]2CC[C@@H](C)[C@@](O)(O2)C(=O)C(=O)N2CCCC[C@H]2C(=O)O[C@H]([C@H](C)C[C@@H]2CC[C@@H](OP(C)(C)=O)[C@H](OC)C2)CC(=O)[C@H](C)/C=C(/C)[C@@H](O)[C@@H](OC)C(=O)[C@H](C)C[C@H](C)\C=C/C=C\C=C/1C
  IC50: > 20 µM
read-out: pIC50 (converted)
  IC50: > 20 µM

## CC(=O)c1ccc[nH]1 [2-ACETYLPYRROLE]
  IC50: > 20 µM
read-out: pIC50 (converted)
  IC50: > 20 µM

## COc1cc2nccc(Oc3ccc(NC(=O)c4cn(C(C)C)c(=O)n(-c5ccc(F)cc5)c4=O)cc3F)c2cc1OC
  IC50: > 20 µM
read-out: pIC50 (converted)
  IC50: > 20 µM

## Cc1cc2cc3c(C)cc(=O)oc3c(C)c2o1 [TRIOXSALEN]
  IC50: > 20 µM
read-out: pIC50 (converted)
  IC50: > 20 µM

## O=C(NCNC(=O)NC1C(=O)NC(=O)N1CO)NC1C(=O)NC(=O)N1CO (centres undefined)
  IC50: > 20 µM
read-out: pIC50 (converted)
  IC50: > 20 µM

## CCN1C[C@@]2(COC)C3[C@@H](OC)[C@H]4[C@H]1C3([C@@H]1C[C@@]3(O)[C@H](OC(=O)c5ccccc5)[C@@H]1[C@]4(OC(C)=O)[C@@H](O)[C@@H]3OC)[C@H](OC)C[C@H]2O
  IC50: > 20 µM
read-out: pIC50 (converted)
  IC50: > 20 µM

## OCCN1CCN(CCCN2c3ccccc3Sc3ccc(Cl)cc32)CC1 [PERPHENAZINE]
  IC50: > 20 µM
read-out: pIC50 (converted)
  IC50: > 20 µM

## OC[C@H]1O[C@@](CO)(O[C@H]2O[C@H](CO)[C@@H](O)[C@H](O)[C@H]2O)[C@@H](O)[C@@H]1O [SUCROSE]
  IC50: > 20 µM
read-out: pIC50 (converted)
  IC50: > 20 µM

## O=C(O)C1=C[C@@H](O)[C@@H](O)[C@H](O)C1 [SHIKIMIC ACID]
  IC50: > 20 µM
read-out: pIC50 (converted)
  IC50: > 20 µM

## COc1cccc2cc(-c3nc([C@H]4CC[C@H](C(=O)O)CC4)n4ncnc(N)c34)[nH]c12 [OSI-027]
  IC50: > 20 µM
read-out: pIC50 (converted)
  IC50: > 20 µM

## CCN(CC)C(=O)N1CCN(C)CC1 [DIETHYLCARBAMAZINE]
  IC50: > 20 µM
read-out: pIC50 (converted)
  IC50: > 20 µM

## CC[C@@]1(O)C(=O)OCc2c1cc1n(c2=O)Cc2cc3c([N+](=O)[O-])cccc3nc2-1 [RUBITECAN]
  IC50: > 20 µM
read-out: pIC50 (converted)
  IC50: > 20 µM

## OC[C@H]1O[C@@H]2O[C@H]3[C@H](O)[C@@H](O)[C@@H](O[C@H]4[C@H](O)[C@@H](O)[C@@H](O[C@H]5[C@H](O)[C@@H](O)[C@@H](O[C@H]6[C@H](O)[C@@H](O)[C@@H](O[C@H]7[C@H](O)[C@@H](O)[C@@H](O[C@H]8[C@H](O)[C@@H](O)[C@@H](O[C@H]1[C@H](O)[C@H]2O)O[C@@H]8CO)O[C@@H]7CO)O[C@@H]6CO)O[C@@H]5CO)O[C@@H]4CO)O[C@@H]3CO [BETADEX]
  IC50: > 20 µM
read-out: pIC50 (converted)
  IC50: > 20 µM

## CCOC(=O)COc1ccc2c(=O)cc(-c3ccccc3)oc2c1 [EFLOXATE]
  IC50: > 20 µM
read-out: pIC50 (converted)
  IC50: > 20 µM

## CCN1CCc2nc(N)oc2CC1 [AZEPEXOLE]
  IC50: > 20 µM
read-out: pIC50 (converted)
  IC50: > 20 µM

## CCCN(CC)C(CC)C(=O)Nc1c(C)cccc1C (centres undefined) [ETIDOCAINE]
  IC50: > 20 µM
read-out: pIC50 (converted)
  IC50: > 20 µM

## Cc1c2oc3c(C)ccc(C(=O)N[C@@H]4C(=O)N[C@@H](C(C)C)C(=O)N5CCC[C@H]5C(=O)N(C)CC(=O)N(C)[C@@H](C(C)C)C(=O)O[C@@H]4C)c3nc-2c(C(=O)N[C@@H]2C(=O)N[C@@H](C(C)C)C(=O)N3CCC[C@H]3C(=O)N(C)CC(=O)N(C)[C@@H](C(C)C)C(=O)O[C@@H]2C)c(N)c1=O (I: TVP[Sar][NMeV] / II: TVP[Sar][NMeV]; ester I:1-I:C, II:1-II:C; linker I:N-II:N via Actinocin(1to9))
  IC50: > 20 µM
read-out: pIC50 (converted)
  IC50: > 20 µM

## c1ccc2c(CC3=NCCN3)cccc2c1 [NAPHAZOLINE]
  IC50: > 20 µM
read-out: pIC50 (converted)
  IC50: > 20 µM

## COc1cc2c(cc1OC)C(=O)C(CC1CCN(Cc3ccccc3)CC1)C2 (centres undefined) [DONEPEZIL]
  IC50: > 20 µM
read-out: pIC50 (converted)
  IC50: > 20 µM

## Nc1nc(O)c2ncn([C@@H]3O[C@H](CO)[C@@H](O)[C@H]3F)c2n1
  IC50: > 20 µM
read-out: pIC50 (converted)
  IC50: > 20 µM

## CCN(CC)CCNC(C(=O)OCCC(C)C)c1ccccc1 (centres undefined) [CAMYLOFIN]
  IC50: > 20 µM
read-out: pIC50 (converted)
  IC50: > 20 µM
